Holding throughout (type): ADME
For series [1], the target named is T1, Mitochondrial amidoxime reducing component 2 (Homo sapiens, UniProt Q969Z3).
T1 sequence (Q969Z3 whole entry): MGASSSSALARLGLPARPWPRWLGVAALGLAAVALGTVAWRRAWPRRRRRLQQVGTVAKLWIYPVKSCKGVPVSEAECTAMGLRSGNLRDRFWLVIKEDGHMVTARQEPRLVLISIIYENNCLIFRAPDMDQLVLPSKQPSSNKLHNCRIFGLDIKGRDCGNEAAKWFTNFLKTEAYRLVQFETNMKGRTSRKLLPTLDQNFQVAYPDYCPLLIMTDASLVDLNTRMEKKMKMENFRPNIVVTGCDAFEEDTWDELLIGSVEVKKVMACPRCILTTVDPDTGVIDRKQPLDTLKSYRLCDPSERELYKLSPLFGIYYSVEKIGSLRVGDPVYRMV
The experiment in a line: Substrate activity at human mARC2 expressed in Escherichia coli assessed as turnover rates at 3 mM pre-incubated for 3 mins followed by NADH addition and measured after 15 mins by LC-MS analysis based assay. As to conditions: 0.25 h, 3000 µM.

The target of series [2] is T1, Mitochondrial amidoxime reducing component 2. The experiment in a line: Substrate activity at human mARC2 expressed in Escherichia coli assessed as turnover rates at 3 mM pre-incubated for 3 mins followed by NADH addition and measured after 15 mins by UV-Visible spectroscopy based NADH assay. As to conditions: 0.25 h, 3000 µM.
Series [3] addresses T2, Mitochondrial amidoxime-reducing component 1 (Homo sapiens, UniProt Q5VT66).
T2 sequence (Q5VT66 whole entry): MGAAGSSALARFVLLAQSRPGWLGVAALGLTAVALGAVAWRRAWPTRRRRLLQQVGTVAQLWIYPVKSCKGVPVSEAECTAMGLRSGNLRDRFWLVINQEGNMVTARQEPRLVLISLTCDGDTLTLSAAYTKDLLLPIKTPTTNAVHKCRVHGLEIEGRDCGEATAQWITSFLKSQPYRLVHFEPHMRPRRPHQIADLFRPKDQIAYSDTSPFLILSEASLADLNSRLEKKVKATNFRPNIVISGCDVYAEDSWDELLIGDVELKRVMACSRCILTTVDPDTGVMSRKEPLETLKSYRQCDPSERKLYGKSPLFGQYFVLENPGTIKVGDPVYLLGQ
The series can be described thus: Substrate activity at human mARC1 expressed in Escherichia coli assessed as turnover rates at 3 mM pre-incubated for 3 mins followed by NADH addition and measured after 15 mins by UV-Visible spectroscopy based NADH assay. As to conditions: 0.25 h, 3000 µM.

For series [4], the target named is T2, Mitochondrial amidoxime-reducing component 1. The experiment in a line: Substrate activity at human mARC1 expressed in Escherichia coli assessed as turnover rates at 3 mM pre-incubated for 3 mins followed by NADH addition and measured after 15 mins by LC-MS analysis based assay. Particulars: 0.25 h, 3000 µM.
The target is the same in series [5]. The series can be described thus: Substrate activity at human mARC1 expressed in Escherichia coli assessed as turnover rates at 1 mM pre-incubated for 3 mins followed by NADH addition and measured after 15 mins by LC-MS analysis based assay. Particulars: 0.25 h, 1000 µM.
The target of series [6] is T1, Mitochondrial amidoxime reducing component 2. The experiment in a line: Substrate activity at human mARC2 expressed in Escherichia coli assessed as turnover rates at 1 mM pre-incubated for 3 mins followed by NADH addition and measured after 15 mins by LC-MS analysis based assay. As to conditions: 0.25 h, 1000 µM.
The target is the same in series [7]. The series can be described thus: Substrate activity at human mARC2 expressed in Escherichia coli assessed as turnover rates at 1 mM pre-incubated for 3 mins followed by NADH addition and measured after 15 mins by UV-Visible spectroscopy based NADH assay. Particulars: 0.25 h, 1000 µM.
Series [8] has as its target T2, Mitochondrial amidoxime-reducing component 1. The experiment in a line: Substrate activity at human mARC1 expressed in Escherichia coli assessed as turnover rates at 1 mM pre-incubated for 3 mins followed by NADH addition and measured after 15 mins by UV-Visible spectroscopy based NADH assay. As to conditions: 0.25 h, 1000 µM.
Series [9] shares this target. The experiment in a line: Substrate activity at human mARC1 expressed in Escherichia coli assessed as turnover rates at 200 uM pre-incubated for 3 mins followed by NADH addition and measured after 15 mins by LC-MS analysis based assay. As to conditions: 0.25 h.
In series [10] the target is T1, Mitochondrial amidoxime reducing component 2. The series can be described thus: Substrate activity at human mARC2 expressed in Escherichia coli assessed as turnover rates at 200 uM pre-incubated for 3 mins followed by NADH addition and measured after 15 mins by UV-Visible spectroscopy based NADH assay. As to conditions: 0.25 h.
The target in series [11] is T2, Mitochondrial amidoxime-reducing component 1. The experiment in a line: Substrate activity at human mARC1 expressed in Escherichia coli assessed as turnover rates at 200 uM pre-incubated for 3 mins followed by NADH addition and measured after 15 mins by UV-Visible spectroscopy based NADH assay. As to conditions: 0.25 h.
In series [12] the target is T1, Mitochondrial amidoxime reducing component 2. The series can be described thus: Substrate activity at human mARC2 expressed in Escherichia coli assessed as turnover rates at 200 uM pre-incubated for 3 mins followed by NADH addition and measured after 15 mins by LC-MS analysis based assay. Particulars: 0.25 h.
The target of series [13] is T2, Mitochondrial amidoxime-reducing component 1. The series can be described thus: Substrate activity at human mARC1 expressed in Escherichia coli assessed as turnover rates at 500 uM pre-incubated for 3 mins followed by NADH addition and measured after 15 mins by UV-Visible spectroscopy based NADH assay. Particulars: 0.25 h.
Series [14] addresses T1, Mitochondrial amidoxime reducing component 2. The series can be described thus: Substrate activity at human mARC2 expressed in Escherichia coli assessed as turnover rates at 500 uM pre-incubated for 3 mins followed by NADH addition and measured after 15 mins by LC-MS analysis based assay. As to conditions: 0.25 h.
Series [15] addresses T2, Mitochondrial amidoxime-reducing component 1. The experiment in a line: Substrate activity at human mARC1 expressed in Escherichia coli assessed as turnover rates at 500 uM pre-incubated for 3 mins followed by NADH addition and measured after 15 mins by LC-MS analysis based assay. Particulars: 0.25 h.
Series [16] deals with T1, Mitochondrial amidoxime reducing component 2. The experiment in a line: Substrate activity at human mARC2 expressed in Escherichia coli assessed as turnover rates at 500 uM pre-incubated for 3 mins followed by NADH addition and measured after 15 mins by UV-Visible spectroscopy based NADH assay. Particulars: 0.25 h.

Molecules are shown by their SMILES.

As for `CN(CCCC(=O)c1cccnc1)N=O`, the Activity result in [1] (BLD = below limit of detection), in series [2] (BLD = below limit of detection), in [3] (BLD = below limit of detection) and in series [4] (BLD = below limit of detection) was “Bld” in each case.
Take `OC[C@H]1O[C@@H](n2cnc3c(NO)ncnc32)[C@H](O)[C@@H]1O`: the Activity in series [5] was 954.5 nmol/mg/min; in [6], 291 nmol/mg/min; in [7] it was 271.6 nmol/mg/min; in series [8] it was 845.7 nmol/mg/min.
For the molecule `NC(=O)c1ccc[n+]([O-])c1`, the Activity entry in [1] (BLD = below limit of detection) was “Bld”; in series [2] (BLD = below limit of detection), “Bld”; in [3] it was 209.9 nmol/mg/min; in [4], 239.3 nmol/mg/min.
Regarding `C=C1C(=O)O[C@@H]2CC[N+]3([O-])CC=C(COC(=O)[C@](C)(O)[C@H](C)[C@H]1C)[C@H]23` (stereo not given in full), the Activity in series [5] is 17.6 nmol/mg/min; in series [6] (BLD = below limit of detection), “Bld”; in series [7] (BLD = below limit of detection), “Bld”; in series [8], 12.7 nmol/mg/min.
For `C[N+](C)([O-])CCC=C1c2ccccc2CCc2ccccc21` [AMITRIPTYLINOXIDE], the Activity entry is “Bld” in series [1] (BLD = below limit of detection), “Bld” in series [2] (BLD = below limit of detection), 9.5 nmol/mg/min in [3] and 3.1 nmol/mg/min in series [4].
In the case of `NC(=NO)c1ccccc1` [BENZAMIDOXIME], the Activity in series [1] came out at 373.9 nmol/mg/min; in [2], 394.3 nmol/mg/min; in series [3], 499.8 nmol/mg/min; in series [4], 549.6 nmol/mg/min.
Take `NS(=O)(=O)NCCNc1nonc1C(=NO)Nc1ccc(F)c(Br)c1` [EPACADOSTAT]: the Activity in series [9] is 4.1 nmol/mg/min; in series [10] it was 24.3 nmol/mg/min; in [11], 10.4 nmol/mg/min; in series [12], 17.9 nmol/mg/min.
Turning to `O=CN(O)CCCP(=O)([O-])O.[Na+]` [FOSMIDOMYCIN SODIUM], the Activity in series [2] came out at 27.8 nmol/mg/min; in series [3], 7.2 nmol/mg/min.
Regarding `N=C(NO)N/N=C/c1c(Cl)cccc1Cl` [GUANOXABENZ], the Activity in [13] came to 951.2 nmol/mg/min; in [14], 967.5 nmol/mg/min; in series [15] it was 988 nmol/mg/min; in [16], 947.1 nmol/mg/min.
Consider `NC(=O)NO` [HYDROXYUREA], for which the Activity is 34.4 nmol/mg/min in [2] and 471.5 nmol/mg/min in [3].
In the case of `Cc1oncc1C(=O)Nc1ccc(C(F)(F)F)cc1` [LEFLUNOMIDE], the Activity result in [13] (BLD = below limit of detection), in series [14] (BLD = below limit of detection), in series [15] (BLD = below limit of detection) and in [16] (BLD = below limit of detection) was “Bld” in each case.
With `O=c1nc(NO)ccn1[C@@H]1O[C@H](CO)[C@@H](O)[C@H]1O` [N-HYDROXYCYTIDINE], the Activity turned out to be 184.2 nmol/mg/min in series [1], 142.1 nmol/mg/min in series [2], 354.7 nmol/mg/min in series [3] and 354.8 nmol/mg/min in [4].
Turning to `Cc1cn([C@H]2C[C@H](N=[N+]=[N-])[C@@H](CO)O2)c(=O)[nH]c1=O` [ZIDOVUDINE], the Activity result in series [1] (BLD = below limit of detection), in [2] (BLD = below limit of detection), in [3] (BLD = below limit of detection) and in series [4] (BLD = below limit of detection) was “Bld” throughout.
On to `CC(c1cc2ccccc2s1)N(O)C(N)=O` (stereo not given) [ZILEUTON], for which the Activity was found to be 2.3 nmol/mg/min in series [5], 0.9 nmol/mg/min in series [6], 8.3 nmol/mg/min in series [7] and 6.1 nmol/mg/min in series [8].
As for `O=C1Cc2cc(CCN3CCN(c4nsc5ccccc45)CC3)c(Cl)cc2N1` [ZIPRASIDONE], the Activity entry in series [9] (BLD = below limit of detection), in series [10] (BLD = below limit of detection), in [11] (BLD = below limit of detection) and in series [12] (BLD = below limit of detection) was “Bld” each time.
With `NS(=O)(=O)Cc1noc2ccccc12` [ZONISAMIDE], the Activity entry in [5] (BLD = below limit of detection), in series [6] (BLD = below limit of detection), in series [7] (BLD = below limit of detection) and in [8] (BLD = below limit of detection) was “Bld” throughout.
